Data taken from patent publication US20140088187A1, “ANDROGEN RECEPTOR INHIBITORS AND METHODS OF USE THEREOF” (BETH ISRAEL DEACONESS MEDICAL CENTER, priority 2010, published 2014).

What was measured:
AR WT = molecular target: T1, AR WT (Homo sapiens, UniProt P10275); experiment: AR expression levels in transiently transfected COS7 cells, AR WT; type: cell-based; conditions: 24 hours
T1 construct: The AR WT construct expresses full-length human AR under cmv promoter control; expressed in transfected cells; host or cells: COS7
T1 sequence (P10275 1-920): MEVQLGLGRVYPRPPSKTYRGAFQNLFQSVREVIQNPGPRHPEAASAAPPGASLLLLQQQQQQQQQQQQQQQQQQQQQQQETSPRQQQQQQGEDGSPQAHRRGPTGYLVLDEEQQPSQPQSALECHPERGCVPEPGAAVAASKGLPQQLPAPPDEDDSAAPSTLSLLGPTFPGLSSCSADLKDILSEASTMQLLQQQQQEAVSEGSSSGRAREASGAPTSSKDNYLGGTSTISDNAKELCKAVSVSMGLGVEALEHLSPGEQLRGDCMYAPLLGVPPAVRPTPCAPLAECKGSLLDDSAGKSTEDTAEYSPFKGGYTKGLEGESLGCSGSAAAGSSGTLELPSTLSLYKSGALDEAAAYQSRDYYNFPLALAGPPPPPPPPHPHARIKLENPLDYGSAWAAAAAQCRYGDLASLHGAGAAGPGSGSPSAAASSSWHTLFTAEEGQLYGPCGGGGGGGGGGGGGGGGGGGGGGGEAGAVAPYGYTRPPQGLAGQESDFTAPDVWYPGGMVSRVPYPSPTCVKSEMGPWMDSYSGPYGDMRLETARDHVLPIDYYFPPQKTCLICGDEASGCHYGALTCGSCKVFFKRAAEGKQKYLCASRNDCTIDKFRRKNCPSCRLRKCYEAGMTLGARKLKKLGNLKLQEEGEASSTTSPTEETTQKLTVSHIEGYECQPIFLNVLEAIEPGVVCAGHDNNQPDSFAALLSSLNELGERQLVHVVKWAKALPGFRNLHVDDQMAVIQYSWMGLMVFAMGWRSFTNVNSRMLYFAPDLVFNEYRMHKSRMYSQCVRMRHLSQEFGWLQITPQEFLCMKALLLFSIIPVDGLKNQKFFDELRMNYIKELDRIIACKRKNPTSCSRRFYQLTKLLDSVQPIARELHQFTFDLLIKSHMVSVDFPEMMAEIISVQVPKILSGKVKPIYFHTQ

VCaP xenograft tumors = experiment: Post-castration relapsed VCaP xenograft tumors (model of CRPC); type: in vivo
Experimental: (§1) FIG. 17. Compound A89 maintains activity in vivo and is efficacious in a CRPC xenograft model. (a) Morphological changes in seminal vesicles of intact adult male mice following treatment with DMSO vehicle, Bic (0.5 mg/day) or A89 (mg/day as indicated) for 7 days. (b) H&E stained cross-sections of prostate ductal epithelium from above mice treated with DMSO, Bic, or A89 (10 mg/day). (c) AR and Ki-67 staining in pre- and post-castration relapsed VCaP xenograft tumor sections following treatment with A89 (5 mg/day) or Bic (0.5 mg/day) for 7 days. (d) mRNA levels of AR and AR-target genes in post-castration relapsed VCaP xenograft tumors following treatment with A89 (5 mg/day) for 7 days. Error bars represent S.E.M.
(§2) To evaluate the activity of the chemotype A compounds in vivo we first treated adult male mice with compound A89 in a dose ranging experiment from 0.5 mg/day to 10 mg/day via intraperitoneal injection for 7 days. […] We next evaluated A89 in VCaP xenograft tumors that had relapsed following an initial response to castration, which is a model of CRPC.

AR = molecular target: T2, AR (Mus musculus, UniProt P19091); experiment: Dose ranging experiment in intact adult male mice (seminal vesicles, prostate epithelium); type: in vivo
T2 construct: we first treated adult male mice with compound A89 in a dose ranging experiment; from tissue; host or cells: seminal vesicles and prostate epithelium of intact adult male mice
T2 sequence (P19091 1-899): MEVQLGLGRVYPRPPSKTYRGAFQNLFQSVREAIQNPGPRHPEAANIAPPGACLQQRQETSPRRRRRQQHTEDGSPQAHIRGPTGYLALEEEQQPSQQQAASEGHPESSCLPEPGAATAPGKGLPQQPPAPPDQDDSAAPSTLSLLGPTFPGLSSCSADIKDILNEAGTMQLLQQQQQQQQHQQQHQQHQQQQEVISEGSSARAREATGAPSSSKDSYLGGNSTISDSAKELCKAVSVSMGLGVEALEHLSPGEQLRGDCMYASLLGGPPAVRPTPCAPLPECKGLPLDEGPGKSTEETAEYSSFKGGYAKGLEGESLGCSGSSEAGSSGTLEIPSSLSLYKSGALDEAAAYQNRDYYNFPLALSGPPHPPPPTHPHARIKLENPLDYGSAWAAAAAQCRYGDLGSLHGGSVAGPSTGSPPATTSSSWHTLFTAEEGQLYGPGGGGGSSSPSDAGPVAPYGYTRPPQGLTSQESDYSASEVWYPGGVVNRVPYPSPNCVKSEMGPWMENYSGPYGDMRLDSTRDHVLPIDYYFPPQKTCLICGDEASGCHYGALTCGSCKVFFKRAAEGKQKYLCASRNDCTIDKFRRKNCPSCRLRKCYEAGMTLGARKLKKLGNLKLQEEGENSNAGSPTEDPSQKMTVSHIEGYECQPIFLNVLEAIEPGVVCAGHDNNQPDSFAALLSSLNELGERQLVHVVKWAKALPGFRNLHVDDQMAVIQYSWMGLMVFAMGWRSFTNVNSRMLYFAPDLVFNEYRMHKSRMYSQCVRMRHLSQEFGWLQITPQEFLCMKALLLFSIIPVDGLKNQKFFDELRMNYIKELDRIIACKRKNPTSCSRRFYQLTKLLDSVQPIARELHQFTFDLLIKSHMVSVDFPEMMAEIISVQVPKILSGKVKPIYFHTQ
Experimental: as §1, §2

[1] = molecular target: T3, endogenous wildtype AR in VCaP cells (Homo sapiens, UniProt P10275); experiment: AR protein degradation with CHX in VCaP cells; type: cell-based; conditions: CHX 100 nM, A89 50 μM
T3 construct: endogenous in cells; host or cells: VCaP
T3 sequence (P10275 1-920): T1 sequence (P10275 1-920)
Experimental: As LNCaP and C4-2 cells express the T877A mutant AR, we next examined PC3-AR cells expressing wildtype AR. As observed in C4-2 cells, A89 caused a decrease in AR protein levels (FIG. 10d). To further validate that this was due to increased AR protein degradation, we pretreated these cells with A89 for 2 hours and then blocked new protein synthesis with cycloheximide (CHX). […] We finally examined VCaP cells.

AR WT protein levels (AR WT): decreased in a dose dependent manner | expression of androgen regulated genes (TMPRSS2, ERG, PSA mRNA) (VCaP xenograft tumors; biopsies pre- and post treatment, A89 5 mg/day for 7 days): significant decrease | general health of mice (AR; 0.5 mg/day to 10 mg/day intraperitoneal injection for 7 days): outwardly healthy | androgen sensitive prostate epithelium (AR; adult male mice, 7 days (10 mg/day in FIG. 17b)): atrophy | seminal vesicles dose-dependent involution, beginning at dose (AR; adult male mice, intraperitoneal injection for 7 days): ≥ 2.5 mg/day | degradation of endogenous wildtype AR [1]: increased degradation
SMILES: CCOc1cc(F)c(S(=O)(=O)NCc2ccc3c(c2)OCO3)cc1F [Compound A89, N-(1,3-benzodioxol-5-ylmethyl)-4-ethoxy-2,5-difluorobenzenesulfonamide]
tumor cell proliferation (Ki-67 staining) (VCaP xenograft tumors; A89 5 mg/day for 7 days): decreased tumor cell proliferation | nuclear AR expression / staining in tumor (VCaP xenograft tumors; A89 5 mg/day or Bic 0.5 mg/day for 7 days): substantially decreased
